pIC50: −log10 of the molar value. Some results are limits rather than exact numbers.

As usually defined, the pIC50 is the negative decadic logarithm of the IC50, by convention in mol/L.

This assay has as its target T1, Tyrosine-protein kinase receptor TYRO3 (Homo sapiens, UniProt Q06418).
T1 sequence (Q06418 whole entry): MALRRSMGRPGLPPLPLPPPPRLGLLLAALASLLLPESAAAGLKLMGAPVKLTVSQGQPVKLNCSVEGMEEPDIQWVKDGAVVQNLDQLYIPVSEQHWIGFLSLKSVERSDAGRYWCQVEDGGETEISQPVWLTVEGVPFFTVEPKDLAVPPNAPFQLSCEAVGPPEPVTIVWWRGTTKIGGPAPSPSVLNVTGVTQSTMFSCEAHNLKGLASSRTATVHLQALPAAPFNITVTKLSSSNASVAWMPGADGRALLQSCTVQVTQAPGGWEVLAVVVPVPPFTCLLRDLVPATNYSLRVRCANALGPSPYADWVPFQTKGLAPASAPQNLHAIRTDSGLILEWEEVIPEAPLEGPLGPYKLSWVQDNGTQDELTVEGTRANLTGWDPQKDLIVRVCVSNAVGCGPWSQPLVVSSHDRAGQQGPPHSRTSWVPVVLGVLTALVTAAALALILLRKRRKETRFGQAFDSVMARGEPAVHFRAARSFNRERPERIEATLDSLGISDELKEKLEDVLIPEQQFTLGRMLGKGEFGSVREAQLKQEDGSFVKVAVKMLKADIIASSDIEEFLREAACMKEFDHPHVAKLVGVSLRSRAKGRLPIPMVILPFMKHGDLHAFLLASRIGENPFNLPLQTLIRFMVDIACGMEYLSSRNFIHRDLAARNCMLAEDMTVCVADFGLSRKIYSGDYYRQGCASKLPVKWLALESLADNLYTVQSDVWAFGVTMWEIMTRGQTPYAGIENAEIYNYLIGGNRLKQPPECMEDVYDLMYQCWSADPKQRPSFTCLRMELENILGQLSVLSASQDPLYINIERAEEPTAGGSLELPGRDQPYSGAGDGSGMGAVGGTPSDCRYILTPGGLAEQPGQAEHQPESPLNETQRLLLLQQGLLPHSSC
Kind of assay: TYRO3 Enzymatic Assay. The method, then: Poly(Glu, Tyr) sodium salt (Glu:Tyr (4:1), quality level 200, molecular weight 5,000-20,000, obtained from Sigma Aldrich, catalogue #P7244, assay concentration 0.20 mg/mL) and recombinant human TYRO3 (obtained from ThermoFisher Scientific, catalogue #PV3828, assay concentration 2 nM) were mixed in assay buffer (20 mM Hepes pH 7.5, 10 mM MgCl2, 1 mM EGTA, 0.02% Brij35, 0.02 mg/ml BSA, 0.1 mM Na3VO4, 2 mM DTT, 1% DMSO, with added MnCl2 at a final concentration of 2 mM). Compounds of interest (in DMSO, serial 3-fold dilution from 10 μM to 0.5 nM) or control (1% DMSO) were dispensed into the kinase reaction mixture by Acoustic technology (Echo550; nanoliter range). After incubation at room temperature for 20 minutes, the kinase reaction was initiated by addition of [32P]-ATP (Specific activity 10 μCi/μl) and the mixture was incubated at room temperature for 2 hours. The reaction was then stopped by spotting the reaction mixture on strips of phosphocellulose P81 paper. Following washing, the radioactivity of the P81 paper was measured and kinase activity data were expressed as the percent remaining kinase activity in test samples compared to vehicle (dimethyl sulfoxide) reactions.

As to `OC1CCCN(Cc2ccc(-c3cnc4[nH]cc(-c5cnc6[nH]ccc6c5)c4c3)cc2)C1` (stereo unspecified) [US20240425499, Compound 47], the negative logarithm of the IC50 (pIC50) is above 7.29. The figure for `OC1CCCN(Cc2ccc(-c3cnc4[nH]c(CC5CC5)c(-c5cccc(F)c5)c4c3)cc2)C1` (stereo unspecified) [US20240425499, Compound 90] is above 7.29.

The molecule `CCOCc1[nH]c2ncc(-c3ccc(CN4CCCC(O)C4)cc3)cc2c1-c1cccc(F)c1` (stereo unspecified) [US20240425499, Compound 67] gave a pIC50 above 7.29. The figure for `Cc1cccc(-c2c[nH]c3ncc(-c4ccc(CN5CCCC(O)C5)cc4)cc23)c1` (stereo unspecified) [US20240425499, Compound 2] is above 7.29; for `CC(C)(O)c1ccc(-c2c[nH]c3ncc(-c4ccc(CN5CCCC(O)C5)cc4)cc23)cc1` (stereo unspecified) [US20240425499, Compound 85] it is above 7.29; for `COCc1[nH]c2ncc(-c3ccc(CN4CCCC(O)C4)cc3)cc2c1-c1ccnc(C(F)F)c1` (stereo unspecified) [US20240425499, Compound 66] it is above 7.29. The figure for `COc1ccc(-c2c[nH]c3ncc(-c4ccc(CN5CC(CO)CC(F)(F)C5)cc4)cc23)cn1` (stereo unspecified) [US20240425499, Compound 33] is below 6.30.

Molecule `COC1CCN(Cc2ccc(-c3cnc4[nH]cc(-c5ccc6[nH]ccc6c5)c4c3)cc2)CC1` [US20240425499, Compound 45] had a pIC50 above 7.29.

The molecule `OC1CCCN(Cc2ccc(-c3cnc4[nH]cc(-c5ccc6c(c5)CCNC6)c4c3)cc2)C1` (stereo unspecified) [US20240425499, Compound 80] showed a pIC50 above 7.29. The figure for `c1cc2cc(-c3c[nH]c4ncc(-c5ccc(CN6CCCCC6)cc5)cc34)ccc2[nH]1` [US20240425499, Compound 79] is above 7.29; for `OC1CCCN(Cc2ccc(-c3cnc4[nH]cc(-c5ccc(C(F)F)nc5)c4c3)cc2)C1` (stereo unspecified) [US20240425499, Compound 23] it is above 7.29.

Molecule `CC1(O)CCN(Cc2ccc(-c3cnc4[nH]cc(-c5ccc6[nH]ccc6c5)c4c3)cc2)CC1` [US20240425499, Compound 76] gave a pIC50 above 7.29. The figure for `COc1ccc(-c2c(Cl)[nH]c3ncc(-c4ccc(CN5CCCC(O)C5)cc4)cc23)cn1` (stereo unspecified) [US20240425499, Compound 56] is above 7.29; for `COCc1[nH]c2ncc(-c3ccc(CN4CCCC(O)C4)cc3)cc2c1-c1ccnc(F)c1` (stereo unspecified) [US20240425499, Compound 65] it is above 7.29. The figure for `CCc1[nH]c2ncc(-c3ccc(CN4CCCC(O)C4)cc3)cc2c1-c1ccc(C(F)F)nc1` (stereo unspecified) [US20240425499, Compound 58] is above 7.29.

`OC1CCCN(Cc2ccc(-c3cnc4[nH]cc(-c5ccc6cn[nH]c6c5)c4c3)cc2)C1` (stereo unspecified) [US20240425499, Compound 48] showed a pIC50 above 7.29. The value for `OC1CCCN(Cc2ccc(-c3cnc4[nH]cc(-c5cc(F)cc(C(F)(F)F)c5)c4c3)cc2)C1` (stereo unspecified) [US20240425499, Compound 13] was below 6.30. The value for `OC1CCCN(Cc2ccc(-c3cnc4[nH]cc(-c5cccc(C(F)F)c5)c4c3)cc2)C1` (stereo unspecified) [US20240425499, Compound 9] was above 7.29; that for `N#Cc1ccc(-c2c[nH]c3ncc(-c4ccc(CN5CCCC(O)C5)cc4)cc23)cc1` (stereo unspecified) [US20240425499, Compound 14] was above 7.29. The figure for `OC1CCN(Cc2ccc(-c3cnc4[nH]cc(-c5ccc6[nH]ccc6c5)c4c3)cc2)CC1` [US20240425499, Compound 78] is above 7.29; for `OC1CCCN(Cc2ccc(-c3cnc4[nH]cc(-c5cc(F)c6ocnc6c5)c4c3)cc2)C1` (stereo unspecified) [US20240425499, Compound 52] it is above 7.29. In the case of `COc1ccc(-c2c[nH]c3ncc(-c4ccc(N5CCC(C)(O)CC5)cc4)cc23)cn1` [US20240425499, Compound 72], the pIC50 is below 6.30.

Regarding `COCc1[nH]c2ncc(-c3ccc(CN4CCCC(O)C4)cc3)cc2c1-c1cccc(F)c1` (stereo unspecified) [US20240425499, Compound 63], the pIC50 was above 7.29. The figure for `CCc1[nH]c2ncc(-c3ccc(CN4CCCC(O)C4)cc3)cc2c1-c1cccc(F)c1` (stereo unspecified) [US20240425499, Compound 57] is above 7.29; for `OC1CCCN(Cc2ccc(-c3cnc4[nH]c(-c5ccoc5)c(-c5ccnc(F)c5)c4c3)cc2)C1` (stereo unspecified) [US20240425499, Compound 86] it is above 7.29. The value for `N#Cc1cc(-c2c[nH]c3ncc(-c4ccc(CN5CCCC(O)C5)cc4)cc23)ccc1O` (stereo unspecified) [US20240425499, Compound 53] was above 7.29. As to `CCc1[nH]c2ncc(-c3ccc(CN4CCCC(O)C4)cc3)cc2c1-c1ccnc(C(F)F)c1` (stereo unspecified) [US20240425499, Compound 61], the pIC50 is above 7.29. The figure for `Cc1nc2cc(-c3c[nH]c4ncc(-c5ccc(CN6CCCC(O)C6)cc5)cc34)cnc2o1` (stereo unspecified) [US20240425499, Compound 84] is above 7.29; for `OCc1ccc(-c2c[nH]c3ncc(-c4ccc(CN5CCCC(O)C5)cc4)cc23)cc1` (stereo unspecified) [US20240425499, Compound 83] it is above 7.29. The figure for `OC1CCCN(Cc2ccc(-c3cnc4[nH]cc(-c5cccc6[nH]ncc56)c4c3)cc2)C1` (stereo unspecified) [US20240425499, Compound 49] is above 7.29; for `COc1ccc(-c2c[nH]c3ncc(-c4ccc(CN5CCCC(F)(F)C5)cc4)cc23)cn1` [US20240425499, Compound 41] it is below 6.30; for `CCc1[nH]c2ncc(-c3ccc(CN4CCCC(O)C4)cc3)cc2c1-c1ccnc(F)c1` (stereo unspecified) [US20240425499, Compound 60] it is above 7.29. The value for `COc1ccc(-c2c[nH]c3ncc(-c4ccc(CN5CCCC(O)C5)cc4)cc23)cc1C#N` (stereo unspecified) [US20240425499, Compound 18] was above 7.29.

As to `CCc1[nH]c2ncc(-c3ccc(CN4CCCC(O)C4)cc3)cc2c1-c1ccc(OC)nc1` (stereo unspecified) [US20240425499, Compound 59], the pIC50 was above 7.29. Turning to `N#Cc1cccc(-c2c[nH]c3ncc(-c4ccc(CN5CCCC(O)C5)cc4)cc23)c1` (stereo unspecified) [US20240425499, Compound 15], the pIC50 is above 7.29. The figure for `CN(C)Cc1ccc(-c2c[nH]c3ncc(-c4ccc(CN5CCCC(O)C5)cc4)cc23)cc1` (stereo unspecified) [US20240425499, Compound 17] is above 7.29. The value for `OC1CCCN(Cc2ccc(-c3cnc4[nH]cc(-c5ccc6ocnc6c5)c4c3)cc2)C1` (stereo unspecified) [US20240425499, Compound 50] was above 7.29; that for `COc1ccc(-c2c[nH]c3ncc(-c4ccc(C(C)N5CCCC(O)C5)cc4)cc23)cn1` (stereo unspecified) [US20240425499, Compound 75] was above 7.29. The figure for `OC1CCCN(Cc2ccc(-c3cnc4[nH]cc(-c5cccc(F)c5)c4c3)cc2)C1` (stereo unspecified) [US20240425499, Compound 4] is above 7.29. In turn, `COC1CN(Cc2ccc(-c3cnc4[nH]cc(-c5ccc6[nH]ccc6c5)c4c3)cc2)C1` [US20240425499, Compound 46] gave a pIC50 above 7.29.

`COc1ccc(-c2c[nH]c3ncc(-c4ccc(CN5CC(O)CC(F)(F)C5)cc4)cc23)cn1` (stereo unspecified) [US20240425499, Compound 31] had a pIC50 below 6.30. The value for `OC1CN(Cc2ccc(-c3cnc4[nH]cc(-c5ccc6[nH]ccc6c5)c4c3)cc2)C1` [US20240425499, Compound 44] was above 7.29; that for `Oc1ccc(-c2c[nH]c3ncc(-c4ccc(CN5CCCC(O)C5)cc4)cc23)cc1` (stereo unspecified) [US20240425499, Compound 16] was above 7.29. `OC1CCCN(Cc2ccc(-c3cnc4[nH]cc(-c5cc(F)cc(F)c5)c4c3)cc2)C1` (stereo unspecified) [US20240425499, Compound 12] had a pIC50 above 7.29. Turning to `CN(C)Cc1[nH]c2ncc(-c3ccc(CN4CCCC(O)C4)cc3)cc2c1-c1cccc(F)c1` (stereo unspecified) [US20240425499, Compound 87], the pIC50 was below 6.30.

Molecule `Cc1nc2cc(-c3c[nH]c4ncc(-c5ccc(CN6CCCC(O)C6)cc5)cc34)ccc2o1` (stereo unspecified) [US20240425499, Compound 51] showed a pIC50 above 7.29.
